pEC50, pIC50: −log10 of the molar value. Where two headings read alike, the source gives them in different places.
How the values were obtained:
[1] = system: HIV (H9/HTLV-IIIB stock) in C8166 cells; assay: Cell culture assay: inhibition of syncytia formation in HIV-infected C8166 cells (antiviral, anti-HIV effect); type: cell-based, HIV (HTLV-IIIB); human T4 cell line; settings: read-out: EC50 (concentration causing 50% inhibition of syncytia formation)
Source text: Typical of such procedures are those described by S. Harada and N. Yamamoto, Jpn. J. Cancer Res. (Gann), 76, 432 (1985), and S. Harada et al., Science, 229, 563 (1985). An assay based on the latter procedures is described in the examples hereinafter.
In addition, Tables 1 to 8 list the results for exemplified compounds of formula 1 when assayed for antiviral (anti-HIV) effects according to the following protocol which is based on a cell culture assay previously described by Harada et al., supra. Transformed cells are used because of the rapidity with which HIV will replicate in the cells.
1. The test compound is dissolved in dimethylsulfoxide to a concentration of 5 mg/mL. The resultant solution .can be stored at 4° until use.
2. The resultant solution is diluted in RPMI 1640 (Gibco Laboratories, St. Lawrence, Mass., USA) to four times (4×) the final concentration which is to be tested. Once diluted in RPMI 1640, the solution is used in the cell culture assay within 4 h.
3. The latter solution (50 μL) is added to triplicate wells of a 96 well flat bottomed microtiter plate. RPMI (50 μL) also is added to control wells.
4. C8166 cells (5×10^4) in 50 μL of HEPES-buffered RPMI 1640 (pH=7.2), 10% heat inactivated fetal calf serum (FCS), […] gentamicin (complete media) are added to all wells.
5. Fifty times TCID50 of H9/HTLV-IIIB stock (stored in liquid nitrogen as cell culture supernatant in 50% FCS) in 100 μL of complete media is added to all wells. The infectious titer of the virus stocks is as previously determined by end point dilution on C8166 cells. The titer of stocks are stable for 6-12 months when stored at -193°.
6. Microtiter plates are then placed on level shelves of a 37°, 5% CO2 humidified incubator for 72 h.
7. Plates are then removed and centers of syncytia are counted in each well by low power phase contrast light microscopy. […] Control wells should have between 25 and 75 centers of syncytia per well.
8. Percent inhibition of syncytia formation is calculated by the formula: [formula]
The concentration of the test compound which causes a 50% inhibition of syncytia formation, i.e. the EC50, is determined by using the technique of serial dilution of the working solution at step 3 and graphically plotting the observed percent inhibition of syncytia formation against the various concentrations of the test compound.
In the following tables, assay results are listed for the exemplified compounds from the aforementioned recombinant HIV protease HPLC assay under the heading IC50 (nM) and from the cell culture assay under the heading EC50 (nM). Note that for some of the compounds listed in tables, the EC50 's have not been determined (ND).

HIV protease = target: T1, HIV protease (Human immunodeficiency virus type 1 group M subtype B, UniProt P04585); assay: biochemical; settings: read-out: IC50 (concentration causing 50% inhibition of HIV protease)
T1 construct: an HIV-encoded enzyme known as HIV protease
Source text: The procedure is based on the capacity of the test compound to inhibit enzymatic cleavage by HIV protease of a decapeptide (the substrate) having an amino acid sequence which includes a known HIV protease cleavage site of a HIV polyprotein; see H. G. Krausslich et al., Proc. Natl. Acad. Sci. USA, 86, 807 (1989).
Anderson, S. Rakhit and C. Yoakim in the European patent application 443 560, published Aug. 28, 1991.

[2] = Human immunodeficiency virus 1, C8166 cells, H9/HTLV-IIIB, 50 times TCID50, 72 h, 37°
[3] = recombinant HIV protease, decapeptide substrate, HPLC assay

| pEC50 [1, 2] | pIC50 (HIV protease; [3]) | pIC50 (HIV protease) | Structure (SMILES) | pEC50 ([1]; Human immunodeficiency virus 1, IIIB, C8166, 72 h) |
| --- | --- | --- | --- | --- |
| 5.96 | 8.30 |  | CCC(CC)NC(=O)C[C@@H](C(=O)NC[C@@H](O)[C@H](Cc1ccccc1)NC(=O)[C@H](CC(N)=O)NC(=O)CCCc1ccccc1)C(C)(C)C [Entry 21] |  |
| 7.28 | 8.40 |  | CCC(CC)NC(=O)C[C@@H](C(=O)NC[C@@H](O)[C@H](Cc1ccccc1)NC(=O)[C@@H](NC(=O)c1ccc2ccccc2n1)[C@@H](C)O)C(C)(C)C [Entry 23, N^1-(1-Ethylpropyl)-N^4 -{3(S)-{[N-(2-quinolylcarbonyl)threonyl]amino}-2(R)-hydroxy-4-phenylbutyl}-3(R)-tert-butylbutanediamide] |  |
| 6.79 | 8.40 |  | CCC(CC)NC(=O)C[C@@H](C(=O)NC[C@@H](O)[C@H](Cc1ccccc1)NC(=O)[C@H](CC(N)=O)NC(=O)c1cc(OC)c2ccccc2n1)C(C)(C)C [Entry 25] |  |
| 7.19 |  | 8.40 | CCC(CC)NC(=O)C[C@@H](C(=O)NC[C@@H](O)[C@H](Cc1ccccc1)NC(=O)[C@@H](NC(=O)c1cnc2ccccc2n1)[C@@H](C)O)C(C)(C)C [Entry 26] |  |
| 7.08 | 8.40 |  | CCC(CC)NC(=O)C[C@@H](C(=O)NC[C@@H](O)[C@H](Cc1ccccc1)NC(=O)[C@@H](NC(=O)c1ccc2ccccc2n1)C(C)(C)C)C(C)(C)C [Entry 27] |  |
| 6.28 | 8.40 |  | CCC(CC)NC(=O)C[C@@H](C(=O)NC[C@@H](O)[C@H](Cc1ccccc1)NC(=O)[C@@H](NC(C)=O)C(C)C)C(C)(C)C [Entry 28] |  |
| 7.28 |  | 8.52 | CCC(CC)NC(=O)C[C@@H](C(=O)NC[C@@H](O)[C@H](Cc1ccccc1)NC(=O)[C@@H](NC(=O)c1ccc2ccccc2n1)C(C)C)C(C)(C)C [Entry 29] |  |
| 7.60 |  | 8.52 | CCC(CC)NC(=O)C[C@@H](C(=O)NC[C@@H](O)[C@H](Cc1ccccc1)NC(=O)[C@@H](NC(=O)c1cnc2ccccc2n1)C(C)C)C(C)(C)C [Entry 31] |  |
| 7.20 | 8.52 |  | CCC(CC)NC(=O)C[C@@H](C(=O)NC[C@@H](O)[C@H](Cc1ccccc1)NC(=O)[C@@H](NC(=O)OCc1ccccc1)C(C)C)C(C)(C)C [Entry 32] |  |
| 7.19 | 8.52 |  | CCC(CC)NC(=O)C[C@@H](C(=O)NC[C@@H](O)[C@H](Cc1ccccc1)NC(=O)[C@@H](NC(=O)OCc1ccccc1)C(C)(C)C)C(C)(C)C [Entry 34] |  |
| 6.89 | 8.52 |  | CCC(CC)NC(=O)C[C@@H](C(=O)NC[C@@H](O)[C@H](Cc1ccccc1)NC(=O)[C@H](CC(N)=O)NC(=O)c1ccc2ccccc2n1)C(C)(C)C [Entry 35] |  |
| 6.59 | 8.52 |  | CCC(CC)NC(=O)C[C@@H](C(=O)NC[C@@H](O)[C@H](Cc1ccccc1)NC(=O)[C@H](CC(N)=O)NC(=O)c1cnc2ccccc2n1)C(C)(C)C [Entry 36] |  |
| 7.47 | 8.52 |  | CCC(CC)NC(=O)C[C@@H](C(=O)NC[C@@H](O)[C@H](Cc1ccccc1)NC(=O)[C@H](CC#N)NC(=O)c1ccc2ccccc2n1)C(C)(C)C [Entry 37] |  |
| 6.24 | 8.40 |  | CCC(CC)NC(=O)C[C@@H](C(=O)NC[C@@H](O)[C@H](Cc1ccccc1)NC(=O)[C@H](CC(N)=O)NC(=O)OCCc1ccccc1)C(C)(C)C [Entry 40] |  |
| 6.77 | 8.52 |  | CCC(CC)NC(=O)C[C@@H](C(=O)NC[C@@H](O)[C@H](Cc1ccccc1)NC(=O)[C@@H](NC(=O)COc1ccccc1)[C@@H](C)O)C(C)(C)C [Entry 41] |  |
| 6.08 | 7.72 |  | CC(C)c1cccc(C(C)C)c1NC(=O)C[C@@H](C(=O)NC[C@@H](O)[C@H](Cc1ccccc1)NC(=O)[C@@H](NC(=O)c1ccc2ccccc2n1)[C@@H](C)O)C(C)(C)C [Entry 42] |  |

| pEC50 [1, 2] | pIC50 (HIV protease; [3]) | pIC50 (HIV protease) | Structure (SMILES) | pEC50 ([1]; Human immunodeficiency virus 1, IIIB, C8166, 72 h) |
| --- | --- | --- | --- | --- |
| 7.52 | 8.30 |  | CCc1cccc(CC)c1NC(=O)C[C@@H](C(=O)NC[C@@H](O)[C@H](Cc1ccccc1)NC(=O)[C@@H](NC(=O)c1ccc2ccccc2n1)[C@@H](C)O)C(C)(C)C [Entry 43] |  |
| 7.24 | 8.40 |  | CCCC(CCC)NC(=O)C[C@@H](C(=O)NC[C@@H](O)[C@H](Cc1ccccc1)NC(=O)[C@H](CC(N)=O)NC(=O)c1ccc2ccccc2n1)C(C)(C)C [Entry 44] |  |
| 6.82 | 8.40 |  | CC(C)C(NC(=O)C[C@@H](C(=O)NC[C@@H](O)[C@H](Cc1ccccc1)NC(=O)[C@H](CC(N)=O)NC(=O)c1ccc2ccccc2n1)C(C)(C)C)C(C)C [Entry 45] |  |
| 7.52 | 8.70 |  | Cc1cccc(C)c1NC(=O)C[C@@H](C(=O)NC[C@@H](O)[C@H](Cc1ccccc1)NC(=O)[C@@H](NC(=O)c1ccc2ccccc2n1)[C@@H](C)O)C(C)(C)C [Entry 46] |  |
| 6.70 |  | 8.15 | CC(C)[C@H](NC(=O)OCc1ccccc1)C(=O)N[C@@H](Cc1ccccc1)[C@H](O)CNC(=O)C(CC(=O)NC(C)(C)C)C(C)(C)C (stereo partly shown) [Entry 51] |  |
| 6.89 | 8.22 |  | CCC(CC)NC(=O)CC(C(=O)NC[C@@H](O)[C@H](Cc1ccccc1)NC(=O)[C@H](CC(N)=O)NC(=O)c1ccc2ccccc2n1)C(C)(C)C (stereo partly shown) [Entry 52] |  |
| 7.05 | 8.22 |  | CCC(CC)NC(=O)CC(C(=O)NC[C@@H](O)[C@H](Cc1ccccc1)NC(=O)[C@@H](NC(=O)OCc1ccccc1)C(C)(C)C)C(C)(C)C (stereo partly shown) [Entry 53] |  |
| 6.24 | 8.15 |  | CCC(CC)OC(=O)C[C@@H](C(=O)NC[C@@H](O)[C@H](Cc1ccccc1)NC(=O)[C@H](CC(N)=O)NC(=O)c1ccc2ccccc2n1)C(C)(C)C [Entry 59, 3(R)-tert-butyl-4-{2(R)-hydroxy-4-phenyl-3(S)-{[N-(2-quinolylcarbonyl)asparaginyl]-amino}butylamino}-4-oxobutyric acid 1-ethylpropyl ester] |  |
| 6.96 | 8.51 |  | CCC(CC)NC(=O)C[C@@H](C(=O)NC[C@@H](O)[C@H](Cc1ccc(O)cc1)NC(=O)COc1c(C)cccc1C)C(C)(C)C [Entry 63, N^1-(1-ethylpropyl)-N^4 -{3(S)-{{(2,6-dimethylphenoxy)-acetyl}amino}-2(R)-hydroxy-4-(4-hydroxyphenyl)butyl}-3(R)-tert-butylbutanediamide] |  |
| 6.19 | 8.05 |  | CCC(CC)NC(=O)C[C@@H](C(=O)NC[C@@H](O)[C@H](Cc1ccccc1)NC(=O)c1cc2ccccc2n1C)C(C)(C)C [Entry 64] |  |
| 6.07 | 8.06 |  | CCC(CC)NC(=O)C[C@@H](C(=O)NC[C@@H](O)[C@H](Cc1ccccc1)NC(=O)c1ccc(Cl)cc1)C(C)(C)C [Entry 65] |  |
| 6.17 | 8.33 |  | CCC(CC)NC(=O)C[C@@H](C(=O)NC[C@@H](O)[C@H](Cc1ccccc1)NC(=O)c1ccc(Cl)cc1Cl)C(C)(C)C [Entry 66] |  |
| 6.44 | 8.22 |  | CCC(CC)NC(=O)C[C@@H](C(=O)NC[C@@H](O)[C@H](Cc1ccccc1)NC(=O)c1c(Cl)ccc(Cl)c1Cl)C(C)(C)C [Entry 67] |  |
| 6.43 | 8.19 |  | CCC(CC)NC(=O)C[C@@H](C(=O)NC[C@@H](O)[C@H](Cc1ccccc1)NC(=O)c1ccccc1C)C(C)(C)C [Entry 68] |  |
| 6.59 | 8.28 |  | CCC(CC)NC(=O)C[C@@H](C(=O)NC[C@@H](O)[C@H](Cc1ccccc1)NC(=O)c1cccc(N)c1C)C(C)(C)C [Entry 69] |  |

| Structure (SMILES) | pEC50 [1, 2] | pIC50 (HIV protease; [3]) | pIC50 (HIV protease) | pEC50 ([1]; Human immunodeficiency virus 1, IIIB, C8166, 72 h) |
| --- | --- | --- | --- | --- |
| CCC(CC)NC(=O)CC(C(=O)NC[C@@H](O)[C@H](Cc1ccccc1)NC(=O)[C@H](CC(N)=O)NC(=O)OCc1ccccc1)C(C)(C)C (stereo partly shown) [Entry 49] |  | 7.89 |  | 5.89 |
